Data as given in the NIST ThermoML archive (doi:10.1016/j.fluid.2010.10.005).

Assay: xn = mol fraction of the nth substance listed
Conditions: 623.15 K, Liquid, Vibrating tube method

CO [methanol] + O
Conditions | mass density [kg/m3]
20000 kPa, x1 = 0.04 | 554.98
20000 kPa, x1 = 0.09 | 499.06
20000 kPa, x1 = 0.15 | 466.53
20000 kPa, x1 = 0.18 | 408.88
20000 kPa, x1 = 0.2 | 310.04
20000 kPa, x1 = 0.25 | 240.45
20000 kPa, x1 = 0.38 | 198.52
20000 kPa, x1 = 0.57 | 192.93
20000 kPa, x1 = 0.59 | 193.68
20000 kPa, x1 = 0.73 | 195.58
20000 kPa, x1 = 0.9 | 203.5
20000 kPa, x1 = 0.95 | 203.61
25000 kPa, x1 = 0.06 | 592.54
25000 kPa, x1 = 0.1 | 564.26
25000 kPa, x1 = 0.19 | 481.28
25000 kPa, x1 = 0.29 | 388.57
25000 kPa, x1 = 0.38 | 335.66
25000 kPa, x1 = 0.55 | 284.19
25000 kPa, x1 = 0.8 | 268.34
30000 kPa, x1 = 0.07 | 599.12
30000 kPa, x1 = 0.09 | 578.83
30000 kPa, x1 = 0.12 | 569.12
30000 kPa, x1 = 0.19 | 536.54
30000 kPa, x1 = 0.47 | 401.25
30000 kPa, x1 = 0.54 | 383.13
30000 kPa, x1 = 0.76 | 350.39
35000 kPa, x1 = 0.09 | 603.89
35000 kPa, x1 = 0.18 | 552.55
35000 kPa, x1 = 0.38 | 476.16
35000 kPa, x1 = 0.48 | 449.31
35000 kPa, x1 = 0.55 | 432.87
35000 kPa, x1 = 0.63 | 422.11
35000 kPa, x1 = 0.77 | 406.97
35000 kPa, x1 = 0.87 | 397.04
